From patent publication US4582827A, “Pesticidal diphenylaziridines” (priority 1983, dated 1986)

Key:
[1] = tested on: tobacco hornworm larvae (newly ecdysed fifth-instar); assay: Topical application to tobacco hornworm larvae; format: in vivo, Manduca sexta
Method: The test compounds were dissolved either in acetone or hexane and applied to the integument of the test insect with a micro applicator. Newly ecdysed fifth-instar tobacco hornworm larvae weighing between 1-1.5 g were used and toxicity data were obtained in the same way as previously described.

[2] = tested on: Salmonella typhimurium strains TA 98, TA 100, TA 1535, TA 1537, TA 1538, TA 1978; assay: Ames assay (spot test), revertant colonies; format: cell-based; conditions: for Mean number of revertant colonies per plate, TA 98 +S9: strain TA 98, +S9; for Mean number of revertant colonies per plate, TA 98 -S9: strain TA 98, -S9; for Mean number of revertant colonies per plate, TA 100 +S9: strain TA 100, +S9; for Mean number of revertant colonies per plate, TA 100 -S9: strain TA 100, -S9; for Mean number of revertant colonies per plate, TA 1535 +S9: strain TA 1535, +S9; for Mean number of revertant colonies per plate, TA 1535 -S9: strain TA 1535, -S9; for Mean number of revertant colonies per plate, TA 1537 +S9: strain TA 1537, +S9; for Mean number of revertant colonies per plate, TA 1537 -S9: strain TA 1537, -S9; for Mean number of revertant colonies per plate, TA 1538 +S9: strain TA 1538, +S9; for Mean number of revertant colonies per plate, TA 1538 -S9: strain TA 1538, -S9; for Mean number of revertant colonies per plate, TA 1978 +S9: strain TA 1978, +S9; for Mean number of revertant colonies per plate, TA 1978 -S9: strain TA 1978, -S9
Method: This means that aziridine compounds, 1, 10, or 11, will not cause mutations in DNA arising from potential changes in frame shift and/or base pairing. Compounds 1, 10 and 11 were tested for mutagenic properties using the following experimental procedure.
Potential mutagenic and carcinogenic properties of the compounds were evaluated with standard Ames assay procedures (Ames et al, "Mutation Res.", 31, p. 347, 1975). This assay used strains of Salmonella typhimurium selected for sensitivity and specificity in being reverted from a histidine requirement back to prototrophy by a wide variety of mutagens. Potential changes in frameshift were evaluated using strains TA 98, TA 1537 and TA 1538, while changes in base pairing were detected using strains TA 100 and TA 1535. In addition, strain TA 1978 was used, in combination with TA 1538, to evaluate whether the agent killed bacteria by damage to DNA that could be repaired by this strain. Initially, the compounds were screened using the spot test, in which 1000 μgm of material dissolved in 10 μl of DNSO was applied to the middle of the plate.
Dose-response tests were not performed because the results were negative. All the tests were carried out in the presence and absence of an S9 rat liver preparation and contained a positive control (2-acetylaminofluorene,AAF) and a negative control (DMSO).

H. virescens = assay: Incorporation into H. virescens diet; format: in vivo, Heliothis virescens; conditions: as much as 20 mM in diet
Method: Compounds 1, 10, 11, 13 and 14 were incorporated into H. virescens diet in the same manner as M. Sexta. Diets containing as much as 20 mM of each compound had little effect on larval development time, pupal weight or time to adult emergence.

[3] = tested on: tobacco hornworm (Manduca sexta) larvae; assay: Tobacco hornworm growth and developmental responses to feeding on diets containing the compounds; format: in vivo; conditions: for larval death (words in table) / larval mortality / symptoms of larvae / time until all larvae dead: 5 mM in diet; for oral activity: diet, Example 2; for larval mortality (acute toxicity): in 24-72 hours
Method: The compounds produced and described in Example 1 were then tested for pesticidal activity against the tobacco hornworm (Manduca sexta). The screening procedure for these tests began with the larval stage and continued through the pupal and adult stages and finally evaluated egg production. The studies thus permitted the evaluation of the effects of the compounds over several subsequent developmental stages in the total life cycle of the insect, giving estimates of acute toxicity (insecticidalor larvicidal activity) as well as prolonged or delayed effects on development (growth regulation) and reproduction (chemosterilization). The latter are of special importance in conjunction with the integrated pest management approach to insect control.
The test compounds were incorporated into the artificial diet of tobacco hornworm larvae and their subsequent growth and developmental responses were monitored using the following parameters: larval mortality including determination of LD50 values, rate of larval development and weight gain, percent pupation, pupal weight and degree of deformities, percent adult emergence and measures of reproductive capacity such as the number of developed ooctyes, fecundity and fertility. The protocol for the screening tests has been developed over a number of years by Dahlman et al., Comp. Biochem. Physiol. 51A, 33, (1975); Comp. Biochem. Physiol., 52A, 105 (1975); Ent. Exp. et Appl., 22, 123 (1977); Palumbo and D. L. Dahlman, J. Econ. Entomol. 71, 674 (1978); D. L. Dahlman, Ent. Exp. et Appl., 24, 327 (1978).
Each treatment used 15 newly ecdysed fifth-instar larvae. Death of larvae within a few hours to several days of initial exposure was considered to be acute toxicity. However, the compounds may reduce the maximum size attained by larvae and/or may retard growth so that larvae require additional time to attain their maximum size. Developmental parameters subsequent to the feeding stage also may be affected. […] Mortality may occur in the pupal stage or emerging adults may have wrinkled wings or other deformities. The number of eggs produced by treated females may be reduced and/or unfertile. Although acute toxicity is desirable in the control of any insect, the delayed effects which result in poor survival and reduced reproductive capacity are significant factors in the long-range program of pest management systems.
Continuous cultures of M. sexta are maintained according to the procedures of Yamamoto, J. Econ. Entomol., 62, p. 1427 (1969). Ingredients of the diet formulation include sugar, casein, wheat germ oil, cholesterol, salt mixture, yeast, vitamins, antioxidants and fungal inhibitors, such as ascorbic acid, sorbic acid, formaldehyde and methyl-p-benzoate. All are incorporated into a liquid agar base which, when poured into holding pans, solidifies to form an adequate substrate upon which the insect larvae feed. Nearly any test material can be uniformly incorporated into such a diet. Thus, exposure to experimental compounds can be evaluated during all or any part of the larval stage. In addition, chronic or long-term effects in subsequent life stages can also be monitored.
The results from these studies, in which the 1,2-diphenylaziridines of Example 1 were incorporated singly into the diet of M. sexta at a concentration of 5 mM are presented in the following Table I.

Clc1ccc(N2CC2c2ccccc2Cl)cc1 (centres unmarked) [Compound 11]
larvae killed ([1]; 500 μg/larva (400 ppm), within 48 hr): 80% | developmental effects ([1]; 250 ppm topical): increased larval developmental time, reduced maximum weight and fewer numbers of eggs | mortality at 250 ppm, 250 µg/g ([1]; Manduca sexta, 250 ppm topical, read-out: larval mortality): 30% | topical activity against the tobacco hornworm (comparison in words) ([1]; topical): less active than Compound 13 | Mean number of revertant colonies per plate, TA 98 +S9 [2]: 44.7 colonies per plate | Mean number of revertant colonies per plate, TA 98 -S9 [2]: 27.3 colonies per plate | Mean number of revertant colonies per plate, TA 100 +S9 [2]: 58.3 colonies per plate | Mean number of revertant colonies per plate, TA 100 -S9 [2]: 28.0 colonies per plate | Mean number of revertant colonies per plate, TA 1535 +S9 [2]: 15.3 colonies per plate | Mean number of revertant colonies per plate, TA 1535 -S9 [2]: 16.3 colonies per plate | Mean number of revertant colonies per plate, TA 1537 +S9 [2]: 13.7 colonies per plate | Mean number of revertant colonies per plate, TA 1537 -S9 [2]: 9.7 colonies per plate | Mean number of revertant colonies per plate, TA 1538 +S9 [2]: 26.0 colonies per plate | Mean number of revertant colonies per plate, TA 1538 -S9 [2]: 13.3 colonies per plate | Mean number of revertant colonies per plate, TA 1978 +S9 [2]: 196.0 colonies per plate | Mean number of revertant colonies per plate, TA 1978 -S9 [2]: 209.7 colonies per plate | mutagenicity ([2]; with and without S9 / mammalian liver enzymes): not mutagenic | effect on larval development time, pupal weight or time to adult emergence (H. virescens): little effect | % Adult Emergence ([3]; 1 mM in diet): 100% | % Adults ([3]; 1 mM in diet): 100% | % Malformed Adults ([3]; 1 mM in diet): 7% | % Pupation ([3]; 1 mM in diet): 100% | Days to Max Wt ([3]; 1 mM in diet): 5.9 ± .1 days | Max Larval Wt ([3]; 1 mM in diet): 8.29 g | Mean No. of Eggs ([3]; 1 mM in diet): 74 ± 22 | No. of female Adults ([3]; 1 mM in diet): 4 | Total No. of Adults ([3]; 1 mM in diet): 14 | larval weight ([3]; 1 mM in diet): a slight reduction in larval weight | % Adult Emergence ([3]; 2.5 mM in diet): 100% | % Adults ([3]; 2.5 mM in diet): 60% | % Malformed Adults ([3]; 2.5 mM in diet): 0% | % Pupation ([3]; 2.5 mM in diet): 60% | Days to Max Wt ([3]; 2.5 mM in diet): 7.7 ± 0.6 days | Max Larval Wt ([3]; 2.5 mM in diet): 6.77 g | Mean No. of Eggs ([3]; 2.5 mM in diet): 15 ± 7 | No. of female Adults ([3]; 2.5 mM in diet): 7 | Total No. of Adults ([3]; 2.5 mM in diet): 9 | maximum larval weight and mean number of eggs ([3]; 2.5 mM in diet): reduced maximum larval weight and the mean number of eggs | percent pupation ([3]; 2.5 mM in diet): lowered the percent pupation | larval death (words in table) [3]: ALL DEAD WITHIN 24 HR OF START OF TEST | larval mortality [3]: all or nearly all larvae died | symptoms of larvae [3]: extreme agitation of larvae, oral and anal expulsion of fluids and ultimately, death | time until all larvae dead [3]: ≤ 24 h | oral activity [3]: good oral activity | larval mortality (acute toxicity) ([3]; summary of Tables I and II): 100% | time to 100% larval mortality ([3]; summary of Tables I and II): 24 to 72 h

CC(=O)Nc1ccc2c(c1)Cc1ccccc1-2 [AAF, 2-acetylaminofluorene, reference compound]
Mean number of revertant colonies per plate, TA 98 +S9 [2]: 284.7 colonies per plate | Mean number of revertant colonies per plate, TA 98 -S9 [2]: 32.7 colonies per plate | Mean number of revertant colonies per plate, TA 100 +S9 [2]: 78.0 colonies per plate | Mean number of revertant colonies per plate, TA 100 -S9 [2]: 25.3 colonies per plate | Mean number of revertant colonies per plate, TA 1535 +S9 [2]: 19.7 colonies per plate | Mean number of revertant colonies per plate, TA 1535 -S9 [2]: 15.7 colonies per plate | Mean number of revertant colonies per plate, TA 1537 +S9 [2]: 14.7 colonies per plate | Mean number of revertant colonies per plate, TA 1537 -S9 [2]: 7.7 colonies per plate | Mean number of revertant colonies per plate, TA 1538 +S9 [2]: 313.7 colonies per plate | Mean number of revertant colonies per plate, TA 1538 -S9 [2]: 14.7 colonies per plate | Mean number of revertant colonies per plate, TA 1978 +S9 [2]: 358.3 colonies per plate | Mean number of revertant colonies per plate, TA 1978 -S9 [2]: 196.3 colonies per plate

FC(F)(F)c1ccc(N2CC2c2ccccc2Cl)cc1 (centres unmarked) [Compound 14]
topical effect ([1]; 2000 μg/larvae (1600 ppm)): ineffective | effect on larval development time, pupal weight or time to adult emergence (H. virescens): little effect | % Adult Emergence ([3]; 1 mM in diet): 100% | % Adults ([3]; 1 mM in diet): 93% | % Malformed Adults ([3]; 1 mM in diet): 36% | % Pupation ([3]; 1 mM in diet): 93% | Days to Max Wt ([3]; 1 mM in diet): 5.8 ± .1 days | Max Larval Wt ([3]; 1 mM in diet): 9.20 g | Mean No. of Eggs ([3]; 1 mM in diet): 83 ± 13 | No. of female Adults ([3]; 1 mM in diet): 9 | Total No. of Adults ([3]; 1 mM in diet): 14 | % Adult Emergence ([3]; 2.5 mM in diet): 8% | % Adults ([3]; 2.5 mM in diet): 7% | % Malformed Adults ([3]; 2.5 mM in diet): 100% | % Pupation ([3]; 2.5 mM in diet): 93% | Days to Max Wt ([3]; 2.5 mM in diet): 6.6 ± 0.2 days | Max Larval Wt ([3]; 2.5 mM in diet): 8.03 g | Mean No. of Eggs ([3]; 2.5 mM in diet): 0 | No. of female Adults ([3]; 2.5 mM in diet): 1 | Total No. of Adults ([3]; 2.5 mM in diet): 1 | malformed adults ([3]; 2.5 mM in diet): a large percentage | maximum larval weight and mean number of eggs ([3]; 2.5 mM in diet): reduced maximum larval weight and the mean number of eggs | larval death (words in table) [3]: ALL DEAD WITHIN 3 DAYS | larval mortality [3]: all or nearly all larvae died | symptoms of larvae [3]: extreme agitation of larvae, oral and anal expulsion of fluids and ultimately, death | time until all larvae dead [3]: ≥ 48 h | mortality at 2500 µM ([3]; Manduca sexta, po, 2.5 mM in diet, read-out: pupal mortality): 85% | oral activity [3]: good oral activity | larval mortality (acute toxicity) ([3]; summary of Tables I and II): 100% | pupal mortality ([3]; summary of Tables I and II): caused pupal mortality | time to 100% larval mortality ([3]; summary of Tables I and II): 24 to 72 h
